Data on two compounds can be found in PMC9161086, “Water-Soluble Trichogin GA IV-Derived Peptaibols Protect Tomato Plants From Botrytis cinerea Infection With Limited Impact on Plant Defenses” (Frontiers in Plant Science, 2022).

Details of series [1]: method as in De Zotti et al., 2009. Conditions: ref De Zotti et al., 2009; cited from earlier work.
For series [2], the system named is methicillin-resistant human pathogens. Conditions: ref De Zotti et al., 2009; cited from earlier work.
Series [3] can be described thus: Hydrophilicity evaluated from HPLC retention times. The series is classed as physicochemical. Conditions: comparison to native Trichogin GA IV, C18 column Phenomenex Jupiter 5 μm, 300 Å, 250 × 4.5 mm, gradient 60%–100% B in 30 min, A H2O/CH3CN 9:1 0.05% TFA, B CH3CN/H2O 9:1 0.05% TFA.
The subject of series [4] is Solanum lycopersicum cv. Micro-Tom leaves. Nature of the series: ROS detection with H2DCFDA on tomato leaves. Conditions: 50 μM in water, 10-μl droplets on abaxial surface of detached Micro-Tom leaves; 24 and 48 h; H2DCFDA fluorescence microscopy.

For the compound “1-octanoyl-Aib-Gly-Leu-Aib-Gly-Gly-Leu-Aib-Gly-Ile-Lol [Trichogin GA IV, 11-residue lipopeptaibol naturally produced by Trichoderma longibrachiatum]”, in series [1], the Resistance to proteolysis entry is recorded as “remarkable resistance to proteolysis”. In series [2], the “Antibacterial activity against methicillin-resistant human pathogens” value is listed as “antibacterial activity”.

Take `CCCCCCCC(=O)NC(C)(C)C(=O)NCC(=O)N[C@@H](CC(C)C)C(=O)NC(C)(C)C(=O)N[C@@H](CCCCN)C(=O)NC(C)(C)C(=O)N[C@@H](CC(C)C)C(=O)NC(C)(C)C(=O)NCC(=O)N[C@H](C(=O)N[C@@H](CC(C)C)C(N)=O)[C@@H](C)CC` [Pep 6r]: the Hydrophilicity entry in series [3] is “+”. Besides, in series [4], the “ROS production on tomato leaves” value is given as “only Pep 4-treated leaves showed ROS production”.
